Test results reported in ChEMBL document CHEMBL1201862, “PubChem BioAssay data set” (2004).
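Compound exposure: 48 hours, 5 concentrations, 96-well plates. GI50 = concentration required for 50% inhibition of growth.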 Calls of active or inactive are those of the source. Cut-off read from the data, not from the text of the source: active = GI50 up to about 1.1 µM and inactive = higher. Where a SMILES comes first, the peptide text is derived from it. The star is where a group is joined. Cbz = O=C(OCc1ccccc1)*; Boc = CC(C)(C)OC(=O)*; Bn = c1ccc(C*)cc1

Key:
Assay in all cases: DTP human tumour cell line panel, 48 h
A498 = test system: A498
ACHN = test system: ACHN
COLO 205 = test system: COLO 205
EKVX = test system: EKVX
HCC 2998 = test system: HCC 2998
HCT-116 = test system: HCT-116
HCT-15 = test system: HCT-15
HL-60 = test system: HL-60
HOP-62 = test system: HOP-62
HT-29 = test system: HT-29
OVCAR-5 = test system: OVCAR-5
SF-268 = test system: SF-268
UACC-62 = test system: UACC-62
UO-31 = test system: UO-31
DU-145 = test system: DU-145
Hs-578T = test system: Hs-578T
MDA-MB-231 = test system: MDA-MB-231
NCI/ADR-RES = test system: NCI/ADR-RES
T47D = test system: T47D
MCF7 = test system: MCF7

Compound | GI50 (A498) | GI50 (ACHN) | GI50 (COLO 205) | GI50 (EKVX) | GI50 (HCC 2998) | GI50 (HCT-116) | GI50 (HCT-15) [µM] | GI50 (HL-60) | GI50 (HOP-62) | GI50 (HT-29) | GI50 (OVCAR-5) | GI50 (SF-268) | GI50 (UACC-62) | GI50 (UO-31) | GI50 (DU-145) | GI50 (Hs-578T) | GI50 (MDA-MB-231) | GI50 (NCI/ADR-RES) | GI50 (T47D) | GI50 (MCF7)
COc1ccc2c(c1)[n+]([O-])c(/C(C)=N/NC(=O)CC#N)c[n+]2[O-] | > 100 µM (inactive) | > 100 µM (inactive) | 83.4 µM (inactive) | > 100 µM (inactive) | > 100 µM (inactive) | 83.9 µM (inactive) | > 100 | 21.1 µM (inactive) | > 100 µM (inactive) | > 100 µM (inactive) | > 100 µM (inactive) | > 100 µM (inactive) | > 100 µM (inactive) | > 100 µM (inactive) | – | – | – | – | – | –
CC(=O)Oc1cc2c(n(C)c1=O)-c1ccccc1C2 | 97.7 µM (inactive) | 32.5 µM (inactive) | 39.4 µM (inactive) | – | 85.9 µM (inactive) | 34.7 µM (inactive) | 28.1 | – | 81.7 µM (inactive) | 78.2 µM (inactive) | > 100 µM (inactive) | 44.1 µM (inactive) | 75.3 µM (inactive) | 41 µM (inactive) | > 100 µM (inactive) | 65 µM (inactive) | 61.4 µM (inactive) | 23.2 µM (inactive) | > 100 µM (inactive) | –
COc1ccc2nc3n(c2c1)C(c1c(Cl)cccc1Cl)SC3 (configuration not stated) | > 100 µM (inactive) | > 100 µM (inactive) | > 100 µM (inactive) | > 100 µM (inactive) | > 100 µM (inactive) | > 100 µM (inactive) | > 100 | > 100 µM (inactive) | 59.7 µM (inactive) | – | > 100 µM (inactive) | – | > 100 µM (inactive) | > 100 µM (inactive) | > 100 µM (inactive) | – | – | > 100 µM (inactive) | > 100 µM (inactive) | > 100 µM (inactive)
CCOP(=S)(OCC)Oc1ccc2c(c1)OC(=O)C1(Cl)C2(C)C2(Cl)C(=O)Oc3cc(OP(=S)(OCC)OCC)ccc3C12C (configuration not stated) | 25.5 µM (inactive) | 22.4 µM (inactive) | 19.1 µM (inactive) | 24.3 µM (inactive) | 17.7 µM (inactive) | 12.3 µM (inactive) | 20.4 | 14.7 µM (inactive) | 18.3 µM (inactive) | 15.5 µM (inactive) | 19 µM (inactive) | 6.08 µM (inactive) | 12.6 µM (inactive) | 17.9 µM (inactive) | – | – | – | – | – | –
CO/C(=N\N=C\c1cc(OC)ccc1OC)c1ccncc1 | > 10 µM (inactive) | > 10 µM (inactive) | > 10 µM (inactive) | – | > 10 µM (inactive) | > 10 µM (inactive) | > 10 | > 10 µM (inactive) | > 10 µM (inactive) | – | > 10 µM (inactive) | > 10 µM (inactive) | – | > 10 µM (inactive) | – | – | – | > 10 µM (inactive) | > 10 µM (inactive) | > 10 µM (inactive)
COC(=O)CSc1[nH]c2nc(C)nc(Nc3ccccc3)c2c1C#N | – | – | > 10 µM (inactive) | > 10 µM (inactive) | > 10 µM (inactive) | – | > 10 | > 10 µM (inactive) | > 10 µM (inactive) | > 10 µM (inactive) | – | > 10 µM (inactive) | > 10 µM (inactive) | – | > 10 µM (inactive) | – | > 10 µM (inactive) | – | > 10 µM (inactive) | > 10 µM (inactive)
CC1(C(O)c2ccccc2)CN(C(C)(C)C)C(=O)/C1=C\Sc1ccccc1 (configuration not stated) | > 100 µM (inactive) | 64.1 µM (inactive) | 20.9 µM (inactive) | 83 µM (inactive) | 94.2 µM (inactive) | 25.4 µM (inactive) | 29.2 | 24.7 µM (inactive) | 99.1 µM (inactive) | 21.1 µM (inactive) | > 100 µM (inactive) | 1.76 µM (inactive) | > 100 µM (inactive) | 29.7 µM (inactive) | > 100 µM (inactive) | – | 53 µM (inactive) | 35.6 µM (inactive) | 13.3 µM (inactive) | 33.7 µM (inactive)
CN(C)CCCNc1ncnc2c1ncn2C1OC(CO)C(O)C1O (configuration not stated) | > 100 µM (inactive) | > 100 µM (inactive) | > 100 µM (inactive) | > 100 µM (inactive) | > 100 µM (inactive) | > 100 µM (inactive) | > 100 | > 100 µM (inactive) | > 100 µM (inactive) | > 100 µM (inactive) | > 100 µM (inactive) | > 100 µM (inactive) | > 100 µM (inactive) | > 100 µM (inactive) | > 100 µM (inactive) | – | > 100 µM (inactive) | > 100 µM (inactive) | > 100 µM (inactive) | > 100 µM (inactive)
O=c1[nH]/c(=C/c2cccs2)c(=O)[nH]/c1=C/c1ccc(OCc2ccccc2)cn1 | 0.0374 µM (active) | 3.24 µM (inactive) | 0.323 µM (active) | 1 µM (active) | 0.0562 µM (active) | 0.0494 µM (active) | < 0.015 | < 0.0182 µM (active) | 0.033 µM (active) | 0.124 µM (active) | 3.87 µM (inactive) | 0.0521 µM (active) | 0.0638 µM (active) | 0.0207 µM (active) | 0.0716 µM (active) | 0.0276 µM (active) | 0.219 µM (active) | 0.0266 µM (active) | – | 0.0422 µM (active)
CN1CCCCCC(=N\O)/C(=N/O)CCCCC1 | > 100 µM (inactive) | > 100 µM (inactive) | – | > 100 µM (inactive) | – | > 100 µM (inactive) | > 100 | > 100 µM (inactive) | > 100 µM (inactive) | > 100 µM (inactive) | > 100 µM (inactive) | > 100 µM (inactive) | – | > 100 µM (inactive) | > 100 µM (inactive) | > 100 µM (inactive) | > 100 µM (inactive) | > 100 µM (inactive) | – | > 100 µM (inactive)
COc1ccc(CC(O)CN2CCOCC2)cc1 (configuration not stated) | > 100 µM (inactive) | > 100 µM (inactive) | – | > 100 µM (inactive) | – | > 100 µM (inactive) | > 100 | > 100 µM (inactive) | > 100 µM (inactive) | > 100 µM (inactive) | > 100 µM (inactive) | > 100 µM (inactive) | > 100 µM (inactive) | > 100 µM (inactive) | > 100 µM (inactive) | > 100 µM (inactive) | > 100 µM (inactive) | > 100 µM (inactive) | > 100 µM (inactive) | –
COc1cc(OC)cc(C(=O)CC(=O)c2cc(OC)cc(OC)c2)c1 | > 100 µM (inactive) | > 100 µM (inactive) | > 100 µM (inactive) | > 100 µM (inactive) | > 100 µM (inactive) | 69.2 µM (inactive) | 68.9 | 6.01 µM (inactive) | > 100 µM (inactive) | – | > 100 µM (inactive) | > 100 µM (inactive) | > 100 µM (inactive) | > 100 µM (inactive) | > 100 µM (inactive) | > 100 µM (inactive) | – | > 100 µM (inactive) | > 100 µM (inactive) | > 100 µM (inactive)
COc1cccc2c1C(=O)c1c(O)c3c(c(O)c1C2=O)CC(O)(C(O)CO)CC3OC1CC(N2CCOCC2)C(O)C(C)O1 (configuration not stated) | 0.00135 µM (active) | 0.00193 µM (active) | 0.00177 µM (active) | 0.00386 µM (active) | < 0.001 µM (active) | < 0.001 µM (active) | 0.00353 | – | 0.00315 µM (active) | 0.00308 µM (active) | 0.00475 µM (active) | 0.00231 µM (active) | < 0.001 µM (active) | – | 0.00703 µM (active) | 0.0146 µM (active) | 0.0165 µM (active) | 0.0162 µM (active) | – | 0.0223 µM (active)
NS(=O)(=O)c1ccc(CNc2nc(-c3cccs3)nc3ccc(I)cc23)cc1 | – | 18.4 µM (inactive) | 16.1 µM (inactive) | 3.85 µM (inactive) | 13.8 µM (inactive) | 14.9 µM (inactive) | 13.1 | – | 21.4 µM (inactive) | 19.4 µM (inactive) | 19.2 µM (inactive) | 23.1 µM (inactive) | 16.5 µM (inactive) | 2.11 µM (inactive) | 14.9 µM (inactive) | – | – | 26.2 µM (inactive) | 0.222 µM (active) | 0.573 µM (active)
COc1cc(-c2oc3c(OC)c(O)c(OC)c(O)c3c(=O)c2OC)cc(O)c1OC | 22.5 µM (inactive) | 50.6 µM (inactive) | 67.8 µM (inactive) | 39.2 µM (inactive) | 31.3 µM (inactive) | 36.1 µM (inactive) | 35.3 | 24.8 µM (inactive) | 40.5 µM (inactive) | 30.8 µM (inactive) | 56.6 µM (inactive) | – | 22.4 µM (inactive) | 23.5 µM (inactive) | 37.1 µM (inactive) | – | 46.2 µM (inactive) | 17.6 µM (inactive) | 32.8 µM (inactive) | 29.6 µM (inactive)
O=c1c(C(c2ccc([N+](=O)[O-])cc2)c2c(O)oc3ccccc3c2=O)c(O)oc2ccccc12 | > 100 µM (inactive) | – | > 100 µM (inactive) | > 100 µM (inactive) | – | > 100 µM (inactive) | > 100 | > 100 µM (inactive) | > 100 µM (inactive) | > 100 µM (inactive) | – | > 100 µM (inactive) | > 100 µM (inactive) | > 100 µM (inactive) | > 100 µM (inactive) | > 100 µM (inactive) | > 100 µM (inactive) | > 100 µM (inactive) | > 100 µM (inactive) | –
CC(C)(C)OC(=O)NC(Cc1ccc(OCc2ccccc2)cc1)C(=O)NC(CCCCNC(=O)OCc1ccccc1)C(=O)O (configuration not stated) (Boc-Tyr(Bn)-Lys(Cbz)-OH; configuration not given here) | – | – | 29.5 µM (inactive) | > 100 µM (inactive) | 35.3 µM (inactive) | 31.3 µM (inactive) | > 10 | 34.7 µM (inactive) | 61.1 µM (inactive) | 62.1 µM (inactive) | > 100 µM (inactive) | – | 20.5 µM (inactive) | 73.8 µM (inactive) | – | 69.3 µM (inactive) | > 100 µM (inactive) | – | – | 34.6 µM (inactive)
